Active and inactive are the calls of the source. How the calls were made is not given here.
These compounds were tested against Signal transducer and activator of transcription 1-alpha/beta (Homo sapiens) (UniProt P42224) (assay: inhibition of STAT1 reporter activity – cell-based, NIH 3T3, luciferase reporter, dose response (AID 1396)). Conditions: NIH 3T3 fibroblasts.
Chain of Signal transducer and activator of transcription 1-alpha/beta (Homo sapiens) (P42224 whole entry, looked up): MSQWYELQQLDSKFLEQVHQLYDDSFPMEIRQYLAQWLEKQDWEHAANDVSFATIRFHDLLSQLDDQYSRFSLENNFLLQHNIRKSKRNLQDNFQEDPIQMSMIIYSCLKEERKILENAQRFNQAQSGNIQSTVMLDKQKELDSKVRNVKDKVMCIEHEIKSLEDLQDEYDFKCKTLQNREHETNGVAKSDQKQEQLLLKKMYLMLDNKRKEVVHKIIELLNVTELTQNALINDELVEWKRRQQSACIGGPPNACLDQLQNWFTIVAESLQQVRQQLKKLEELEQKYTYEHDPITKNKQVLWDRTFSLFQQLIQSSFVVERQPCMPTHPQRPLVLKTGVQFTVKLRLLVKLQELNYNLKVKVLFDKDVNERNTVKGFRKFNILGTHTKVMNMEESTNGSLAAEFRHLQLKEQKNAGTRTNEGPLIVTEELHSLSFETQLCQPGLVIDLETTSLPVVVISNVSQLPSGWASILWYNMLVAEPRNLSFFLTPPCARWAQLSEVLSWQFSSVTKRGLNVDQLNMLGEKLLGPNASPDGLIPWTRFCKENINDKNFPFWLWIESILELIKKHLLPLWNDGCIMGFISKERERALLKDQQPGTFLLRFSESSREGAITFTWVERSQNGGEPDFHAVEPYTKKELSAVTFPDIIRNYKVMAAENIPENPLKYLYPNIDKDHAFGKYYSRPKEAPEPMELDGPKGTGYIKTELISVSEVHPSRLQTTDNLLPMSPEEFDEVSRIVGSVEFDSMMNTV

Q: How did the IC50 turn out when `CCn1c(O)c(/C=N/NC(=O)c2ccncc2)c(=O)n(CC)c1=S` was run?
A: 4.42 µM

Q: How did the IC50 turn out when `O=C(c1ccco1)N1CCN(c2ncnc3c2[nH]c2ccc(Br)cc23)CC1` was run?
A: inactive

Q: `CCn1c(=O)c2cc(C(=O)N3CCCC3)sc2c2ccccc21` was tested. Which IC50 did it give?
A: inactive

Q: For `COc1ccc(-n2c(SCc3cccnc3)nc3c(c2=O)SCC3)cc1OC`, which IC50 is on record?
A: inactive

Q: For `C#Cc1ccc([C@H]2C=C(C(=O)OCC=C)O[C@@H](OCC)[C@@H]2CCCO)cc1`, which IC50 is on record?
A: inactive

Q: How did the IC50 turn out when `O=C(CSc1nc2ccccc2c(=O)[nH]1)c1ccc(O)cc1O` was run?
A: 9.39 µM

Q: `COC(=O)CCS(=O)(=O)c1nc(-c2ccccc2)cc(C(F)(F)F)n1` was tested. Which IC50 did it give?
A: inactive

Q: `COc1ccccc1-c1cc(C(F)(F)F)nc(S(=O)(=O)CCCC(=O)Nc2cccnc2Cl)n1` was tested. Which IC50 did it give?
A: > 18.6 µM (inactive)

Q: How did the IC50 turn out when `CN1CCN(Cc2nc3ccccc3c(=O)n2Cc2nc(-c3ccccc3F)cs2)CC1` was run?
A: 4.24 µM

Q: How did the IC50 turn out when `COc1ccccc1CNc1ncnc2cc(Cl)ccc12` was run?
A: > 55.7 µM (inactive)

Q: `COc1ccccc1-c1cc(C(F)(F)F)nc(S(=O)(=O)CCCC(=O)N2CCOCC2)n1` was tested. Which IC50 did it give?
A: > 6.19 µM (inactive)

Q: For `CCOC(=O)c1c(C)nc2sc3c(=O)n(-c4ccc(OC)cc4)nnc3c2c1-c1ccc(OC)cc1`, which IC50 is on record?
A: inactive

Q: How did the IC50 turn out when `CCOC(=O)N1CCN(C(=O)c2ccc(CSc3ccc(Cl)cc3)cc2)CC1` was run?
A: > 55.7 µM (inactive)

Q: For `CCN(CC)S(=O)(=O)c1ccc(N2CCOCC2)c(NC(=O)c2cc(-c3ccccn3)nc3ccccc23)c1`, which IC50 is on record?
A: inactive

Q: Which IC50 does the source give for `CS(=O)(=O)c1nc(-c2ccccc2)cc(C(F)(F)F)n1` here?
A: 9.97 µM

Q: How did the IC50 turn out when `Cc1cc(=O)n(C(NC(=O)c2ccccc2)C(=O)c2ccccc2)cn1` (centres undefined) was run?
A: 9.25 µM

Q: `COc1ccc(-c2cc(C(F)(F)F)nc(S(=O)(=O)CCCC(=O)Nc3cccnc3Cl)n2)cc1OC` was tested. Which IC50 did it give?
A: inactive

Q: Which IC50 does the source give for `Cc1cccc(/C=C(\c2nc3ccccc3[nH]2)S(=O)(=O)c2ccccc2)c1` here?
A: > 55.7 µM (inactive)

Q: For `COc1ccc(-c2cc(C(F)(F)F)nc(S(=O)(=O)CCCC(=O)Nc3cccc(O)c3)n2)cc1OC`, which IC50 is on record?
A: inactive

Q: For `Cc1ccc(-n2nc(C(=O)O)c3ccccc3c2=O)cc1C`, which IC50 is on record?
A: 5.2 µM

Q: `COCC(C)NC(=O)CCS(=O)(=O)c1nc(-c2ccc(OC)cc2)cc(C(F)(F)F)n1` (centres undefined) was tested. Which IC50 did it give?
A: inactive

Q: `COC(=O)C1=CN(Cc2ccc(OC)c(OC)c2)C=C(C(=O)OC)C1c1cccs1` was tested. Which IC50 did it give?
A: inactive

Q: Which IC50 does the source give for `CCOc1cc(-c2noc(N)c2C#N)cc(OCC)c1OCC` here?
A: > 55.7 µM (inactive)

Q: `CS(=O)(=O)c1nc(-c2ccc(F)cc2)cc(C(F)(F)F)n1` was tested. Which IC50 did it give?
A: inactive

Q: `Cc1cc(NC(=O)CCCS(=O)(=O)c2nc(-c3cccs3)cc(C(F)(F)F)n2)no1` was tested. Which IC50 did it give?
A: inactive

Q: `Cn1nnnc1Sc1ncnc2scc(-c3ccc(F)cc3)c12` was tested. Which IC50 did it give?
A: inactive

Q: How did the IC50 turn out when `Cc1ccc(-c2csc3ncnc(Sc4nnc(CN5CCCCCC5=O)o4)c23)cc1` was run?
A: 6.7 µM

Q: `CN1CCN(Cc2nc3ccccc3c(=O)n2Cc2nc(-c3cccc([N+](=O)[O-])c3)cs2)CC1` was tested. Which IC50 did it give?
A: inactive

Q: With `COc1ccc(CCNc2ncnc3cc(OC)c(OC)cc23)cc1OC` as the compound, how does the IC50 read?
A: > 55.7 µM (inactive)

Q: With `Cc1ccccc1-c1noc(N)c1C#N` as the compound, how does the IC50 read?
A: > 55.7 µM (inactive)

Q: How did the IC50 turn out when `Cc1ccc2[nH]c3c(N4CCN(Cc5ccccc5)CC4)ncnc3c2c1` was run?
A: > 55.7 µM (inactive)

Q: Which IC50 does the source give for `Cn1c(C(=O)N2CCN(c3ccc([N+](=O)[O-])cc3)CC2)cc2c(=O)[nH]c3ccccc3c21` here?
A: inactive

Q: For `CN1CCN(Cc2nc3ccccc3c(=O)n2Cc2nc(-c3ccc4ccccc4c3)cs2)CC1`, which IC50 is on record?
A: 9.58 µM

Q: With `O=C(NNC(=O)c1cccc(S(=O)(=O)N2CCc3ccccc32)c1)c1ccccc1` as the compound, how does the IC50 read?
A: > 55.7 µM (inactive)

Q: Which IC50 does the source give for `COc1ccc(CNc2ncnc3cc(Cl)ccc23)cc1OC` here?
A: inactive

Q: With `CCOC(=O)CCS(=O)(=O)c1nc(-c2ccccc2)cc(C(F)(F)F)n1` as the compound, how does the IC50 read?
A: inactive

Q: For `O=C(c1ccc(Cl)cc1)N1CCN(c2ccnc3cc(Cl)ccc23)CC1`, which IC50 is on record?
A: > 55.7 µM (inactive)

Q: For `COc1ccc(CCNC(=O)Cn2c(=O)n(-c3ccc(F)cc3)c(=O)c3sccc32)cc1OC`, which IC50 is on record?
A: inactive

Q: For `Cc1ccc(C(=O)Nc2cccc(N(C)S(C)(=O)=O)c2)cc1S(=O)(=O)Nc1ccccc1`, which IC50 is on record?
A: inactive

Q: Which IC50 does the source give for `COc1ccccc1-c1cc(C(F)(F)F)nc(S(C)(=O)=O)n1` here?
A: > 18.6 µM (inactive)

Q: How did the IC50 turn out when `CS(=O)(=O)c1nc(-c2ccco2)cc(C(F)(F)F)n1` was run?
A: > 18.6 µM (inactive)

Q: For `Cc1ccccc1NC(=O)C(=Cc1ccc(C(=O)O)cc1)C(=O)Nc1ccccc1C`, which IC50 is on record?
A: inactive

Q: With `O=C(c1ccc2c(c1)N(Cc1ccccc1)C(=O)c1ccccc1S2)N1CCCC1` as the compound, how does the IC50 read?
A: 8.43 µM

Q: Which IC50 does the source give for `O=c1cc(CSc2nc3ccccc3c(=O)[nH]2)c2ccc(O)cc2o1` here?
A: 4.36 µM

Q: For `CCOC(=O)N1CCN(C(=O)c2ccc(-n3c(=S)[nH]c4ccccc4c3=O)cc2)CC1`, which IC50 is on record?
A: 3.47 µM

Q: Which IC50 does the source give for `CC1(C)Cc2c(ccc3ccccc23)C2=C(C(=O)N3CCCC3)C(=O)C(=O)N21` here?
A: inactive

Q: `COc1ccc(-c2cc(C(F)(F)F)nc(S(=O)(=O)CCCC(=O)Nc3cc(C)on3)n2)cc1OC` was tested. Which IC50 did it give?
A: inactive

Q: `Cc1ccc(S(=O)(=O)N2CCN(C(C(=O)Nc3ccc(F)cc3)c3ccccc3)CC2)cc1` (centres undefined) was tested. Which IC50 did it give?
A: 7.87 µM

Q: For `CCOC(=O)N1CCN(C(=O)/C=C/c2c(C)nn(-c3ccc(F)cc3)c2Cl)CC1`, which IC50 is on record?
A: inactive

Source: PubChem BioAssay AID1396 (The Scripps Research Institute Molecular Screening Center, 2008)
